Laboratory results as given in patent US9938262B2, “Benzamides” (Merck Patent GmbH, priority 2011, dated 2018).
pEC50: −log10 of the molar value. Like-named read-outs stand apart in the source and are kept apart here.

Columns and labels:
[1] = target: T1, follicle-stimulating hormone (FSH) receptor (Rattus norvegicus, UniProt P20395); assay: Rat granulosa EC50 FSH (Assay B); assay type: cell-based; conditions: rat granulosa cells, Table 1
T1 construct: endogenous in cells; host or cells: rat granulosa cells
T1 sequence (P20395 18-692): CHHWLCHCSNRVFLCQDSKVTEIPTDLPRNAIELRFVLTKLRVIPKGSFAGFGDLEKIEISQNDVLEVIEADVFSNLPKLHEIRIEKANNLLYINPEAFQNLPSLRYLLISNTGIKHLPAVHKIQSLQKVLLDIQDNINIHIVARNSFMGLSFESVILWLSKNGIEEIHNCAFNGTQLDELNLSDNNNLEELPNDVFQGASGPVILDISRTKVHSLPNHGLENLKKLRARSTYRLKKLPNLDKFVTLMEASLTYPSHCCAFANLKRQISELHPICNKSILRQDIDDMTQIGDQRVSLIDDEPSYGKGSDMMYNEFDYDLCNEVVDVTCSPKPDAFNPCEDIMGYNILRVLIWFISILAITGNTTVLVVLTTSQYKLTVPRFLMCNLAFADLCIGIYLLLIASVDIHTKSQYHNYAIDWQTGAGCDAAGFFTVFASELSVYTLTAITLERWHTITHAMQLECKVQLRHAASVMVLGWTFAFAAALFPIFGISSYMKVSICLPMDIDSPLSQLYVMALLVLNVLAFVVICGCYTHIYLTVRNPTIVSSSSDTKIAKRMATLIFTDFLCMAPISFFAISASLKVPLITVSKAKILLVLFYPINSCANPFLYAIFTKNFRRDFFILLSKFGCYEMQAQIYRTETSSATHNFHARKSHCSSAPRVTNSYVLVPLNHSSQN
Procedure: Example 11: Rat Granulosa EC50 FSH (Assay B)
The assay was performed pursuant to the teaching of Yanofsky et al. (2006) Allosteric activation of the follicle-stimulating hormone (FSH) receptor by selective, nonpeptide agonists. JBC 281(19): 13226-13233, which is incorporated by reference in the disclosure of the invention.

FSHR = target: T2, FSHR (Homo sapiens, UniProt P23945); assay: EC50 of cyclic AMP production in CHO FSHR cells + EC20 FSH (Assay A); assay type: cell-based; conditions: CHO FSHR cells + EC20 FSH, read-out: Assay A EC50 of cyclic AMP production
T2 construct: expressed in transfected cells; host or cells: CHO (Cho-FSHR-LUC-1-1-43)
Method in brief: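 cAMP HTRF ratio (665/620 nm) read after 1 h, 37 °C exposure of CHO-FSHR cells to compound in presence of EC20 FSH ([…]) and IBMX 200 μM. Responses given relative to FSH standard maximum; EC50 derived.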

T2 sequence (P23945 18-695): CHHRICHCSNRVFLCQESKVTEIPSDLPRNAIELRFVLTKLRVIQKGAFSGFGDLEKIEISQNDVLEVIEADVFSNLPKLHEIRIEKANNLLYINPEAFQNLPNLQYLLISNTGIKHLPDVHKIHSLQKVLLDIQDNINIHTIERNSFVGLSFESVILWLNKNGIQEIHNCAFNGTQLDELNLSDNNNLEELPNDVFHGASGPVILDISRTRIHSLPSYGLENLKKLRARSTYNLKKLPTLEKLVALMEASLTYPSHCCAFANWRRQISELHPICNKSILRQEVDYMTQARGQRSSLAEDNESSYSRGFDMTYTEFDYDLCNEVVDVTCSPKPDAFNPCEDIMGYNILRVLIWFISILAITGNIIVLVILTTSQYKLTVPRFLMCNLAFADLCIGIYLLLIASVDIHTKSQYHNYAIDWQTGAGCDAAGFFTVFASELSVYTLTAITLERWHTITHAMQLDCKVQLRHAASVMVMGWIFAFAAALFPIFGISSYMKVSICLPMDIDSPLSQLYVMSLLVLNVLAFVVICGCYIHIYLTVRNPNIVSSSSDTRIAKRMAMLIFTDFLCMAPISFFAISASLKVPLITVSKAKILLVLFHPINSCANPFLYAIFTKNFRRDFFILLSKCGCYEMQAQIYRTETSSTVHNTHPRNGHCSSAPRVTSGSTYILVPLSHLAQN
T2 sequence (P01215 25-116 partner): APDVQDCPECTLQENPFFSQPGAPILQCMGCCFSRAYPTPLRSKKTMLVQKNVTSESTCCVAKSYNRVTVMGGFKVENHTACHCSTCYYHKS
T2 sequence (P01225 19-129 partner): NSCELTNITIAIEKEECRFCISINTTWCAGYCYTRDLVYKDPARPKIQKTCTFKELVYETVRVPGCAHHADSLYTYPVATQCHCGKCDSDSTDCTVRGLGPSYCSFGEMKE

pEC50 (FSHR; Table 2) | Compound | other results
– | Cc1ccccc1N1CCN(c2ccc(C(=O)NCCCN3CCCC3=O)cc2NC(=O)c2ccco2)CC1 [Compound 2] | pEC50 [1]: 5.00 to 6.00; pEC50 (FSHR; Table 1): > 7.00
– | O=C(NCC1CCCO1)c1ccc(N2CCN(Cc3ccccc3)CC2)c(NC(=O)c2ccccc2Cl)c1 (stereo not shown) [Compound 3] | Assay B % at 5 μM [1]: 10%; pEC50 (FSHR; Table 1): 6.00 to 7.00
– | Cc1ccccc1N1CCN(c2ccc(C(=O)NCCCN3CCCC3=O)cc2NC(=O)c2occc2C)CC1 [Compound 5] | pEC50 [1]: 5.00 to 6.00
– | Cc1ccc(C(=O)Nc2cc(C(=O)NCCCN3CCCC3=O)ccc2N2CCN(c3ccccc3C)CC2)o1 [Compound 6] | pEC50 [1]: 6.00 to 7.00
– | Cc1ccccc1N1CCN(c2ccc(C(=O)NCCc3c[nH]cn3)cc2NC(=O)c2ccco2)CC1 [Compound 15] | pEC50 [1]: 6.00 to 7.00; pEC50 (FSHR; Table 1): 6.00 to 7.00
– | Cc1ccccc1N1CCN(c2ccc(C(=O)NCCCN3CCCC3=O)cc2NC(=O)c2ccccc2)CC1 [Compound 27] | pEC50 [1]: 5.00 to 6.00
– | Cc1ccccc1N1CCN(c2ccc(C(=O)NCCCN3CCCC3=O)cc2NC(=O)c2ccc(F)cc2)CC1 [Compound 31] | pEC50 [1]: 6.00 to 7.00; pEC50 (FSHR; Table 1): 6.00 to 7.00
– | Cc1ccc(C(=O)Nc2cc(C(=O)NCCCN3CCCC3=O)ccc2N2CCN(c3ccccc3C)CC2)cc1 [Compound 35] | pEC50 [1]: 5.00 to 6.00; pEC50 (FSHR; Table 1): 6.00 to 7.00
– | Cc1ccccc1N1CCN(c2ccc(C(=O)NCCCN3CCCC3=O)cc2NC(=O)c2ccccn2)CC1 [Compound 36] | pEC50 [1]: 6.00 to 7.00
– | Cc1ccccc1N1CCN(c2ccc(C(=O)NCCCN3CCCC3=O)cc2NS(=O)(=O)c2cccc3cccnc23)CC1 [Compound 45] | pEC50 [1]: 6.00 to 7.00; pEC50 (FSHR; Table 1): 6.00 to 7.00
– | Cc1ccccc1N1CCN(c2ccc(C(=O)NC3CCN(S(C)(=O)=O)CC3)cc2NC(=O)c2ccco2)CC1 [Compound 58, Furan-2-carboxylic acid [5-(1-methanesulfonyl-piperidin-4-ylcarbamoyl)-2-(4-o-tolyl-piperazin-1-yl)-phenyl]-amide] | Assay B % at 5 μM [1]: 27%; pEC50 (FSHR; Table 1): 6.00 to 7.00
– | Cc1ccccc1N1CCN(c2ccc(C(=O)NCCCN3CCCC3=O)cc2NC(=O)c2cscn2)CC1 [Compound 73] | pEC50 [1]: 5.00 to 6.00; pEC50 (FSHR; Table 1): 6.00 to 7.00
– | Cc1nc(C(=O)Nc2cc(C(=O)NCCCN3CCCC3=O)ccc2N2CCN(c3ccccc3C)CC2)cs1 [Compound 74] | pEC50 [1]: 6.00 to 7.00; pEC50 (FSHR; Table 1): 6.00 to 7.00
– | Cc1nc(C(=O)Nc2cc(C(=O)NCCCN3CCCC3=O)ccc2N2CCN(c3ccccc3C)CC2)co1 [Compound 75] | pEC50 [1]: < 5.00
– | CCc1nc(C(=O)Nc2cc(C(=O)NCCCN3CCCC3=O)ccc2N2CCN(c3ccccc3C)CC2)co1 [Compound 79] | pEC50 [1]: 6.00 to 7.00; pEC50 (FSHR; Table 1): 6.00 to 7.00
– | Cc1ccccc1N1CCN(c2ccc(C(=O)NCCCN3CCCC3=O)cc2NC(=O)C2CC2)CC1 [Compound 84] | pEC50 [1]: 6.00 to 7.00
– | Cc1ccccc1N1CCN(c2ccc(C(=O)NCCCC3CCOC3)cc2NC(=O)c2ccco2)CC1 (stereo not shown) [Compound 158] | pEC50 [1]: 6.00 to 7.00
6.00 to 7.00 | Cc1ccccc1N1CCN(c2ccc(C(=O)NC[C@@H](O)CO)cc2NC(=O)c2coc(C3CC3)n2)CC1 [Compound 567] | –
6.00 to 7.00 | Cc1ccccc1N1CCN(c2ccc(C(=O)NC[C@@H](N)c3ccccc3)cc2NC(=O)c2coc(C3CC3)n2)CC1 [Compound 568] | –
5.00 to 6.00 | Cc1ccc2[nH]cc(CCNC(=O)c3ccc(N4CCN(c5ccccc5C)CC4)c(NC(=O)c4coc(C5CC5)n4)c3)c2c1 [Compound 569] | –
6.00 to 7.00 | Cc1ccccc1N1CCN(c2ccc(C(=O)NCCCc3cccc(O)c3)cc2NC(=O)c2coc(C3CC3)n2)CC1 [Compound 570] | –
6.00 to 7.00 | Cc1ccccc1N1CCN(c2ccc(C(=O)N3CCC4(CC3)COC4)cc2NC(=O)c2coc(C3CC3)n2)CC1 [Compound 571] | –
> 7.00 | Cc1ccccc1N1CCN(c2ccc(C(=O)NCCCN3CCCC3=O)cc2NCc2ccco2)CC1 [Compound 572] | –
5.00 to 6.00 | Cc1ccc(CNc2cc(C(=O)NCc3cccc(CN(C)C)c3)ccc2N2CCN(c3ccccc3C)CC2)o1 [Compound 573] | –
6.00 to 7.00 | Cc1ccccc1N1CCN(c2ccc(C(=O)NCc3cccc(CO)c3)cc2NC(=O)c2coc(C3CC3)n2)CC1 [Compound 574] | –
> 7.00 | Cc1ccccc1N1CCN(c2ccc(C(=O)N[C@H]3CCC[C@@H](O)C3)cc2NC(=O)c2coc(C3CC3)n2)CC1 [Compound 575] | –
> 7.00 | Cc1ccccc1N1CCN(c2ccc(C(=O)N[C@H]3CCC[C@H](O)C3)cc2NC(=O)c2coc(C3CC3)n2)CC1 [Compound 576] | –

pEC50 (FSHR; Table 2) | Compound | other results
> 7.00 | Cc1ccccc1N1CCN(c2ccc(C(=O)N[C@H]3CCC[C@H](O)[C@@H]3O)cc2NC(=O)c2coc(C3CC3)n2)CC1 [Compound 578] | –
6.00 to 7.00 | CCOc1cc(CCCNC(=O)c2ccc(N3CCN(c4ccccc4C)CC3)c(NC(=O)c3ccco3)c2)ccc1OC [Compound 579] | –
6.00 to 7.00 | CCOc1cc(CCCNC(=O)c2ccc(N3CCN(c4ccccc4C)CC3)c(NC(=O)c3coc(C4CC4)n3)c2)ccc1OC [Compound 580] | –
6.00 to 7.00 | CCOc1cc(CCCNC(=O)c2ccc(N3CCN(c4ccccc4C)CC3)c(NC(=O)c3ccc(C)o3)c2)ccc1OC [Compound 581] | –
6.00 to 7.00 | Cc1ccccc1N1CCN(c2ccc(C(=O)NC[C@@H](O)c3ccccc3)cc2NC(=O)c2ccco2)CC1 [Compound 582] | –
5.00 to 6.00 | Cc1ccc(C(=O)Nc2cc(C(=O)NC[C@@H](O)c3ccccc3)ccc2N2CCN(c3ccccc3C)CC2)o1 [Compound 583] | –
5.00 to 6.00 | Cc1ccc(C(=O)Nc2cc(C(=O)NC[C@H](O)c3ccccc3)ccc2N2CCN(c3ccccc3C)CC2)o1 [Compound 584] | –
> 7.00 | Cc1ccccc1N1CCN(c2ccc(C(=O)NC[C@H](O)c3ccccc3)cc2NC(=O)c2ccco2)CC1 [Compound 585] | –
5.00 to 6.00 | Cc1ccccc1N1CCN(c2ccc(C(=O)N3CCC4(COC4)C3)cc2NC(=O)c2ccco2)CC1 [Compound 587] | –
6.00 to 7.00 | Cc1ccc(C(=O)Nc2cc(C(=O)NCCCc3cccc(O)c3)ccc2N2CCN(c3ccccc3C)CC2)o1 [Compound 588] | –
6.00 to 7.00 | Cc1ccccc1N1CCN(c2ccc(C(=O)NCCCc3cccc(O)c3)cc2NC(=O)c2ccco2)CC1 [Compound 589] | –
6.00 to 7.00 | Cc1ccccc1N1CCN(c2ccc(C(=O)N3CC4(COC4)C3)cc2NC(=O)c2coc(C3CC3)n2)CC1 [Compound 590] | –
< 5.00 | Cc1ccc(C(=O)Nc2cc(C(=O)N3CC4(COC4)C3)ccc2N2CCN(c3ccccc3C)CC2)o1 [Compound 591] | –
5.00 to 6.00 | Cc1ccccc1N1CCN(c2ccc(C(=O)N3CC4(COC4)C3)cc2NC(=O)c2ccco2)CC1 [Compound 592] | –
5.00 to 6.00 | Cc1ccc(C(=O)Nc2cc(C(=O)N3CCC4(COC4)C3)ccc2N2CCN(c3ccccc3C)CC2)o1 [Compound 593] | –
5.00 to 6.00 | Cc1ccccc1N1CCN(c2ccc(C(=O)N3CCC4(COC4)C3)cc2NC(=O)c2coc(C3CC3)n2)CC1 [Compound 594] | –
5.00 to 6.00 | N#Cc1nccnc1N1CCN(c2ccc(C(=O)NCCCN3CCCC3=O)cc2NC(=O)c2coc(C3CC3)n2)CC1 [Compound 595] | –
5.00 to 6.00 | O=C(NCCCN1CCCC1=O)c1ccc(N2CCN(c3cccnn3)CC2)c(NC(=O)c2coc(C3CC3)n2)c1 [Compound 596] | –
< 5.00 | Cc1cc(N2CCN(c3ccc(C(=O)NCCCN4CCCC4=O)cc3NC(=O)c3coc(C4CC4)n3)CC2)ncn1 [Compound 597] | –
5.00 to 6.00 | Cc1nnc(N2CCN(c3ccc(C(=O)NCCCN4CCCC4=O)cc3NC(=O)c3coc(C4CC4)n3)CC2)s1 [Compound 598] | –
< 5.00 | COc1cncc(N2CCN(c3ccc(C(=O)NCCCN4CCCC4=O)cc3NC(=O)c3coc(C4CC4)n3)CC2)c1 [Compound 599] | –
6.00 to 7.00 | CN(C)c1ccc(N2CCN(c3ccc(C(=O)NCCCN4CCCC4=O)cc3NC(=O)c3coc(C4CC4)n3)CC2)nn1 [Compound 602] | –
5.00 to 6.00 | Cc1ccccc1N1CCN(c2ccc(C(=O)NCCCN3CCCC3=O)cc2NC(=O)c2coc(C3CC3)n2)CC1=O [Compound 605] | –
6.00 to 7.00 | Cc1ccccc1N1CCN(c2ccc(C(=O)NCCNC3CS(=O)(=O)C[C@H]3O)cc2NC(=O)c2ccco2)CC1 (stereo partly shown) [Compound 606] | –
6.00 to 7.00 | Cc1ccccc1N1CCN(c2ccc(C(=O)NCCNC3CS(=O)(=O)C[C@@H]3O)cc2NC(=O)c2ccco2)CC1 (stereo partly shown) [Compound 607] | –
6.00 to 7.00 | Cc1ccccc1N1CCN(c2ccc(C(=O)NCCCN3CCC[C@@H]3C(N)=O)cc2NC(=O)c2ccco2)CC1 [Compound 608] | –
6.00 to 7.00 | Cc1ccccc1N1CCN(c2ccc(C(=O)NCCCN3CCC[C@H]3C(N)=O)cc2NC(=O)c2ccco2)CC1 [Compound 609] | –
